Consider 1 substance from US20250195474A1, “Piezo Inhibition for Wound Healing” (priority 2022, published 2025).

One series concerns the target T1, TRPC6 (Homo sapiens, UniProt Q9Y210).
T1 sequence (Q9Y210 1-931): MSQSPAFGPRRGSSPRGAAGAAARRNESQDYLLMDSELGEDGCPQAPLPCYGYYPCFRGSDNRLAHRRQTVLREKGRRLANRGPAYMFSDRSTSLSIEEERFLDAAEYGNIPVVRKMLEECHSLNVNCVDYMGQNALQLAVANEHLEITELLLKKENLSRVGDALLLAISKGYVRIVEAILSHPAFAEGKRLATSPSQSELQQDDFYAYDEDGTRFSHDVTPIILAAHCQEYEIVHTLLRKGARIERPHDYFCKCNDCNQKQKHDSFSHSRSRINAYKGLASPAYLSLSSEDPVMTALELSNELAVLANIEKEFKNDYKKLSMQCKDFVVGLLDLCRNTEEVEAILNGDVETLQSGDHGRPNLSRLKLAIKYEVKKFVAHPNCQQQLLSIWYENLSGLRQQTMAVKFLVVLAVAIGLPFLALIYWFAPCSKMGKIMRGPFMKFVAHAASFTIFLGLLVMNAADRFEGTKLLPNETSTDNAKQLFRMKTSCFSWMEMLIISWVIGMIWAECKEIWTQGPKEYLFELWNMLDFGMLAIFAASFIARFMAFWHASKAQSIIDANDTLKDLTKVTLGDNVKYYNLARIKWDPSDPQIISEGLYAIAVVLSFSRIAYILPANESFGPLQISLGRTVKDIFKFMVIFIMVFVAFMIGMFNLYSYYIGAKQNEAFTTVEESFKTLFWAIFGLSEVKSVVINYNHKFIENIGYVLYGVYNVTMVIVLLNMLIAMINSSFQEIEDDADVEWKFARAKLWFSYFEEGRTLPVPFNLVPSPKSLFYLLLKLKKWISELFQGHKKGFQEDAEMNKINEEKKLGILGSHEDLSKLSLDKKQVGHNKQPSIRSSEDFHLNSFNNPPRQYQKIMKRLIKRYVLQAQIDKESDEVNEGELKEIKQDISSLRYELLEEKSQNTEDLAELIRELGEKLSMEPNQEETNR
The note with it: cited from earlier work.

For series [1], the system named is human foreskin xenograft wounds. Briefly: CODEX analysis of human xenograft wounds at POD 14. Format: in vivo. From the text: To spatially phenotype the pig specimens, we used Co-Detection by Indexing (CODEX), a novel assay in which markers are labeled with oligonucleotide-conjugated antibodies and iteratively imaged between cyclic additions and washouts of dye-labeled oligonucleotides. A custom CODEX panel was designed to assess wound cells within the tissue see Table 1). In brief, primary antibodies were individually barcoded and validated using the commercial supplier's protocols. OCT for mouse or paraffin blocks for human xenograft (n=3 per group) were sectioned at 8 μm thickness onto coverslips for CODEX antibody staining. Antigens were retrieved by standard citrate-EDTA processing prior to addition of CODEX antibodies. Using a CODEX-integrated Keyence BZ-X instrument (Akoya Biosciences) image acquisition was then performed. Using software from Akoya Biosciences the raw images were process, with cell segmentation, and rendering.
The CODEX was visualized using Akoya Biosciences Multiplex Analysis Viewer (MAV) in ImageJ. The resulting .fcs files were then concatenated in FlowJo and imported into the Monocle3 and STvEA R packages for further analysis. After debris removal, the processed UMAP manifold was analyzed through Monocle3 with a post-manifold threshold of >10,000 cells per cluster. Analysis of the protein staining patterns was then used to assign cell types. The cell interactions were then inferred using STvEA for cell types at >2.5% of total abundance at k=20 nearest neighbors to quantify cell spatial interactions, and differential interaction maps were generated using graph scores.
While scRNA-seq of human xenografts investigates human fibroblast subpopulations at a transcriptomic level, we further utilized CODEX to analyze spatially defined protein expression and cellular organization (FIG. 13A; markers shown in Table 1 right column). Specifically, we compared the spatial microenvironment of PBS, P1i, and unwounded skin at POD 14. […]

The subject of a further series is wound cells. Briefly: scRNA-seq and CellChat analysis of POD 14 wounds.
In a further series the test system is mouse adipocytes. Nature of the series: Proliferation and apoptosis assays for treatment toxicity. The series is classed as cell-based. The note with it: 0.5x, 1x, 2x standard concentration [500 nm], 7 days. The method, then:
P1i and P2i treated adipocytes (and fibroblast controls) were examined for treatment toxicity using proliferation and apoptosis assays. […] Then, cells were treated with either 0.5×, 1×, or 2× the standard concentration of Piezo1 or Piezo2 inhibitors [500 nm]. After 7 days of treatment, cells were fixed or harvested for analysis of potential toxicity. For proliferation, EdU (5-ethynyl-2′-deoxyuridine) incorporation in vitro was investigated on differentiated adipocytes and undifferentiated fibroblasts using the Click-iT™ EdU Cell Proliferation Kit for Imaging, Alexa Fluor™ 488 dye (ThermoFisher, Cat: C10337). Proliferation was detected according to the manufacturer's guidelines. To evaluate apoptosis, the Annexin V Apoptosis Detection Kit-AF647 (Abcam, Cat: 219919) was used according to the manufacturer's guidelines.

No end group written: not given here.

Consider “GsMTx4 (GCLEFWWKCNPNDDKCCRPKLKCSKLFKLCNFSF; ends and bridges not checked; cysteine pairing not given here; UniProt Q7YT39 47-80, looked up) [P1i]”, for which, in the series with TRPC6, the “block of TRPC6” value was “blocks”. In addition, in series [1] (POD 14), the “interactions between fibroblasts and adipocytes” value is “PBS-treated wounds showed broadly enriched interactions between fibroblasts and adipocytes compared to P1i-treated wounds”; the “interactions of adipocytes 4” value was “strong crosstalk between adipocytes 4 and epithelial cells”. Moreover, the “relative proportions of CODEX defined adipocyte clusters” value in series [1] (POD 14, vs PBS, p<0.05) was “fewer of the adipocyte 1 subtype and more of the adipocyte 4 subtype”. The “relative adipocytes and fibroblasts among sequenced wound cells” value with wound cells (POD 14) was “relatively more adipocytes and fewer fibroblasts”. Besides, in the series with wound cells (POD 14, vs control wounds), the “CellChat interactions between cluster 5 fibroblasts and adipocytes” value was “enhanced interactions between cluster 5 fibroblasts and adipocytes”; the “CellChat signaling of adipocyte pathways (Leptin, Chemerin, PD-L1)” value is listed as “enhanced signaling of known adipocyte pathways”; the “CellChat signaling of cluster 5 fibroblasts with other cell types” value is “increase in signaling between cluster 5 fibroblasts and most other cell types”. For the same substance, the “percentage of cells positive for EdU, annexin V or DAPI by FACS” value in the series on mouse adipocytes is given as “None of the markers' expression was significantly different”.
